Legend:
[1] = tested on: AMP-Activated Protein Kinase (AMPK); experiment: Immunoblot of AMPK Thr172 phosphorylation; assay type: cell-based, murine; conditions: 0.7 μM MMe or 3 μM pCF3-MMe
Procedure: The functional consequence of inhibiting mitochondria complex I and subsequently OXPHOS is a reduction of overall ATP levels in the cell. The ability of MMe to reduce ATP levels was previously reported in numerous cancer cell types. Thus, further studies were conducted to explore if pCF3-MMe retained similar properties. […] Cells, including cancer cells, must maintain a high ATP:ADP ratio to maintain cellular functions and survival. Moreover, AMP levels rise whenever the ATP:ADP ratio decreases, and an increase in the AMP:ATP ratio signals an energetic crisis in the cell. […]
Cells were serum-starved for 24 hours followed by compound treatment for 24 hours before lysis in RIPA buffer composed of 50 mM Tris-HCl, pH 7.4, 150 mM NaCl, 0.25% v/v sodium deoxycholate, 1% v/v Nonidet P-40, 0.1% v/v SDS, 1 mM EDTA, 10 mM sodium orthovanadate, 40 mM 0-glycerol phosphate, 20 mM sodium fluoride, and protease inhibitors cocktail set III (Millipore Sigma, Cat #539134). […] Primary antibodies were detected by incubating with secondary horseradish peroxidase-conjugated antibody (Cytiva, Amersham ECL rabbit IgG-HRP, Cat #NA9340). Densitometric quantification of phosphorylated, total or actin protein levels was measured using chemiluminescence and calculated using Alpha View Software.

[2] = tested on: KPC1242, Panc-1, AsPC-1, HCT-116, MDA-MB-231, OVCAR-4, OVCAR-8 cancer cell lines; experiment: Cell growth (IncuCyte confluence) in cancer cell lines; assay type: cell-based, murine, human; conditions: for cell confluency: increasing concentrations 0.1 μM-10 μM, each of the cancer cells
From the text: Murine pancreatic cancer cells KPC1242 (David Tuveson, Cold Spring Harbor), human pancreatic cancer cells, Panc-1 (ATCC: CRL-1469), human breast cancer cells MDA-MB-231 (ATCC: CRM-HTB-26), and human pancreatic stellate cells HPSC (Rosa F. Hwang, MD Anderson cancer) were all cultured in DMEM (Gibco ThermoFisher Scientific, Waltham, MA, Cat #11965084) containing 10% v/v fetal bovine serum (Omega Scientific, Inc., Tarzana, CA, Cat #FB-12). Human pancreatic cancer cells AsPC-1 (ATCC: CRL-1682), human ovarian cancer cells OVCAR-8 (NIH: CVCL-1629), and human ovarian cancer cells OVCAR-4 (NIH: CVCL-1627) were all cultured in DMEM (Gibco, Cat #22400089) containing 10% v/v fetal bovine serum (Omega Scientific). Human colon cancer cells HCT-116 (ATCC: CCL-247) were cultured in McCoy's 5A Modified Medium (Gibco, Cat #16600082) containing 10% v/v fetal bovine serum (Omega Scientific). Human pancreatic duct epithelial cells HPNE (ATCC: CRL-4023) were cultured in DMEM and 200 mM L-Glutamine and 7.5% w/v NaCO3 further supplemented with 15% v/v fetal bovine serum, M3-Base A (Incell, San Antonio, TX), 1M D-Glucose (Gibco Cat #J60067.EQE), 100 μg/mL human EGF (Gibco Cat #PHG0313) and 10 mg/mL puromycin (ThermoFisher, Cat #A1113802).

[3] = tested on: KPC1242 cells; experiment: Luminescent ATP detection assay; assay type: cell-based, murine; conditions: 24 hours; 0.7 μM MMe or 3 μM pCF3-MMe
Procedure: The functional consequence of inhibiting mitochondria complex I and subsequently OXPHOS is a reduction of overall ATP levels in the cell. The ability of MMe to reduce ATP levels was previously reported in numerous cancer cell types. Thus, further studies were conducted to explore if pCF3-MMe retained similar properties. […] Cells, including cancer cells, must maintain a high ATP:ADP ratio to maintain cellular functions and survival. Moreover, AMP levels rise whenever the ATP:ADP ratio decreases, and an increase in the AMP:ATP ratio signals an energetic crisis in the cell. This energetic crisis is sensed by the master regulator AMP-Activated Protein Kinase (AMPK), which is activated through Thr172 phosphorylation and controls many signaling pathways ranging from energy metabolism to cellular growth. Therefore, further studies were conducted to evaluate if the reduction in ATP levels induced by MMe or pCF3-MMe is sufficient to activate AMPK.
Intracellular ATP levels were determined in cell lysates using a Luminescent ATP Detection Assay Kit per the manufacturer's directions (Abcam, Cambridge, UK, Cat #ab113849).

[4] = tested on: C57BL/6J mice; experiment: Tolerability in non-tumor-bearing mice; assay type: in vivo; conditions: for tolerability of repeated injection: daily for 5 consecutive days, 25 μg/mouse to 1 mg/mouse
Procedure: FIGS. 6A-6I show pCF3-MMe inhibits tumor growth with enhanced biosafety relative to MMe. C57BL/6J mice were treated with 1 mg MMe, 1 mg pCF3-MMe, 1 mg MMe, 250 μg MMe, 100 μg MMe, 50 μg MMe, or 25 μg MMe for 6 hours (FIG. 6A) or 5 days (FIG. 6D). Kaplan-Meier survival curve of mice treated for 6 hours (FIG. 6B) or 5 days […], n=3-5. Numbers of mice surviving over time after a single injection (FIG. 6C) or 5 repeated doses (FIG. 6F). Significance was determined using a Mantel-Cox test (*, p<0.05; **, p<0.01). KPC1242 murine pancreatic cancer engrafted mice were treated with 1 mg pCF3-MMe or vehicle 5 days on and 2 days off (FIG. 6G). Tumors isolated from vehicle and treated mice were pictured (FIG. 6H). Tumor volume was measured ex vivo from vehicle and pCF3-MMe-treated mice (FIG. 6I). Values are mean±SD. Significant differences were determined by Student's t-test (*, p<0.05).
With the ability to detect pCF3-MMe in vitro and in vivo in hand, along with anti-tumor properties and decreased toxicity towards non-transformed cells in culture, we next compared the tolerability of pCF3-MMe in mice. Non-tumor-bearing mice received an intraperitoneal injection with decreasing amounts (1 mg, 250 μg, 100 μg, 50 μg, or 25 μg) of unsubstituted MMe or pCF3-MMe. […] […].
Given the strong safety shown from a single injection, further studies were conducted to determine if mice tolerated repeated injection using our published treatment schedule by injecting non-tumor-bearing mice daily for 5 consecutive days with doses ranging from as little as 25 μg/mouse to as much as 1 mg/mouse […] (FIG. 6D). […] Since 1 mg/mouse pCF3-MMe was well tolerated in tumor-free animals, further studies were conducted to test if pCF3-MMe could inhibit tumor growth in vivo. Mice were implanted with murine cancer cells and injected 17 days after engraftment with 1 mg pCF3-MMe (FIG. 6G). […] Taken together, trifluoromethylation of TPP^+ improves the reproducible detection, quantitative measurement, and safety profile of TPP^+-conjugated compounds while retaining potent anti-tumor effects in vivo.

Compound | AMPK activation (Thr172 phosphorylation) [1] | efficacy compared to MMe in several types of cancer [2] | cell confluency [2] | levels of ATP [3] | tolerability of repeated injection [4] | mice surviving ([4]; single intraperitoneal injection of 1 mg) | tolerability after a single injection ([4]; single intraperitoneal injection, MMe 250 μg or 1 mg, metformin 1 mg)
N=C(N)NC(=N)NCCCCCCCCCC[P+](c1ccc(C(F)(F)F)cc1)(c1ccc(C(F)(F)F)cc1)c1ccc(C(F)(F)F)cc1.[Br-] [pCF3-MMe, (10-(3-carbamimidoylguanidino)decyl)tris(4-(trifluoromethyl)phenyl)phosphonium bromide] | significant increase in AMPK activation | only a slight change in efficacy | decreased in a concentration-dependent manner | significantly reduced | tolerated a 1 mg dose | 100% | –
N=C(N)NC(=N)NCCCCCCCCCC[P+](c1ccccc1)(c1ccccc1)c1ccccc1.[Br-] [MMe, 10-[(carbamimidamidomethanimidoyl)amino]decyl-triphenylphosphonium bromide, reference compound] | significant increase in AMPK activation | – | decreased in a concentration-dependent manner | significantly reduced | succumbed to 4-fold lower doses | – | significant and rapid mortality
